Broadly, the ED50 is the dose at which the effect has come halfway, by size or by number of responders.

In brackets after ≈: the same amount, converted by molar mass. Read-outs that look alike come from different tables or passages of the source.

The nature of data set [1]: CUPRAC assay. The settings on record: pH 7.0, 450 nm. How it is done:
Cupric reducing antioxidant capacity (CUPRAC) assay was performed according to the method by Apak et al.[20] with slight modifications. The CUPRAC reagent was prepared by mixing equal volume of CuCl2 (10 mM), neocuproine solution (7.5 mM), and acetate buffer (pH = 7.0). Subsequently, 50 µl of TP-10, TP-315, TP-427 (0.002–0.4 mg/ml) and 150 µl of CUPRAC reagent were pipetted into each well of 96-well plate (Nunc, Roskilde, Denmark). After pipetting, the plate was shaken for 5 min and then incubated for 25 min in the dark at room temperature. The absorbance of the solutions was read at 450 nm using a microplate reader (Epoch, BioTek Instruments, Inc., Winooski, VT, USA). At least six tests were performed for each concentration of the investigated compounds. The results were expressed as the IC50 (µg/ml) ± SD.

Data set [2] can be described thus: DPPH assay. The settings on record: methanol, 30 min, 517 nm. The procedure: Free radical scavenging activity of compounds TP-10, TP-315 and TP-427 was evaluated using DPPH assay. Briefly, 25 µl of 0.2 mM of methanolic solution of DPPH ([…]) was mixed with 175 µl of varying concentrations (0.002–4.5 mg/ml) of the studied compounds dissolved in methanol. Reaction mixtures in the 96-well plate were incubated in the dark at room temperature for 30 min. The absorbance was measured at 517 nm against blank (which consists of all reagents without the investigated compounds) using a microplate reader (Epoch, BioTek Instruments, Inc., Winooski, VT, USA). As a reference, the antioxidant activity of vitamin C was evaluated. Each concentration of the compounds was assayed at least six times. The results were expressed as the IC50 (µg/ml) ± SD calculated using the linear regression analysis.
For orientation: Loss of DPPH colour is used to gauge radical scavenging.

On the set-up of data set [3]: method as in Barton et al. 25. Particulars: ref Barton et al. 25, cited from earlier work.
Data set [4] has as its system 6 Hz-induced psychomotor seizures. On the set-up: method as in Barton et al. 25. Particulars: pretreatment time 15 min, ref Barton et al. 25, cited from earlier work.

In the case of `O=C1O[C@H]([C@@H](O)CO)C(O)=C1O` [Ascorbic acid, reference compound], the “IC50 ± SD, CUPRAC” value in data set [1] is 16.05 ± 0.48 µg/mL (≈ 91.1 µM). Besides, in data set [2], the “IC50 ± SD, DPPH” value came to 7.82 ± 0.54 µg/mL (≈ 44.4 µM).
Regarding `CC[C@@H](C(N)=O)N1CCCC1=O` [Levetiracetam], the TD50 in data set [3] (pretreatment time 60 min) was above 500 mg/kg.
Consider `CCCC(CCC)C(=O)O` [Valproate, valproic acid], for which, in data set [3] (pretreatment time 15 min), the TD50 is listed as 363.3 mg/kg. Moreover, the ED50 in data set [4] (mouse 6 Hz test) is given as 130.6 mg/kg. In addition, in data set [4], the “Protective index (TD50/ED50)” value is on record as 2.8.
